Laboratory results: publication PMC9250970, “Role of Helical Structure in MBP Immunodominant Peptides for Efficient IgM Antibody Recognition in Multiple Sclerosis” (Frontiers in Chemistry, 2022)
Entries after “also recorded” stand apart in the source; their conditions may differ.

How the values were obtained:
[1] = NMR conformational analysis in DPC micelles; type: physicochemical; conditions: 1H NMR (chemical shift and NOE), 100 mM DPC-d38, 50 mM potassium phosphate pH 6.5, 10% D2O, 25°C; remaining regions random coil
Description: The samples for NMR spectroscopy were prepared by dissolving the appropriate amount of peptide in 50 mM potassium phosphate buffer (pH 6.5), 10% D2O, and 100 mM DPC-d38. NMR spectra were recorded on a Varian INOVA 600 MHz spectrometer equipped with a z-gradient 5 mm triple-resonance probe head. Spectra were recorded at a temperature of 25°C. The spectra were calibrated relative to TSP (0.00 ppm) as internal standard. One-dimensional (1D) NMR spectra were recorded in the Fourier mode with quadrature detection. The water signal was suppressed by gradient echo ([Hwang and Shaka, 1995]). 2D DQF-COSY ([Piantini et al., 1982]; [Marion and Wüthrich, 1983]), TOCSY ([Braunschweiler and Ernst, 1983]), and NOESY ([Jenner et al., 1979]) spectra were recorded in the phase-sensitive mode. Data block sizes were 2048 addresses in T2 and 512 equidistant T1 values. Before Fourier transformation, the time domain data matrices were multiplied by shifted sin2 functions in both dimensions. A mixing time of 70 ms was used for the TOCSY experiments. NOESY experiments were run with mixing time of 100 ms.

[2] = Circular dichroism (secondary structure); type: physicochemical; conditions: for % helix / effect of temperature on secondary structure / self-aggregation (in words) / secondary structure (in words) / effect of temperature on secondary structure (in words): CD; for % helix: H2O:TFE (50:50, v:v); for effect of temperature on secondary structure / self-aggregation (in words): PBS pH 7.4, 10 to 60°C in increments of 5°C; for effect of temperature on secondary structure (in words): Supplementary Figures S14, S15, various temperatures (10 to 60°C)
Description: CD spectra were recorded on JASCO J-815 with increasing temperature from 10 to 60°C in increments of 5°C between λ = 270 and 185 nm. The CD measurements were carried out in H2O, a mixture of H2O:TFE (50:50, v:v) and PBS (phosphate buffered saline, pH 7.4, containing: sodium chloride, potassium chloride, sodium phosphate dibasic, potassium phosphate monobasic). The spectra were registered with the following parameters: 0.2 nm resolution, 1.0 nm bandwidth, 20 mdeg sensitivity, 0.25 s response, 100 nm min^−1 scanning speed, 5 scans, and 0.02 cm cuvette path length. The CD spectra of solvents were recorded and subtracted from the raw data. The spectra were corrected by a baseline that was measured with the identical solvent in the same cell. The CD intensity is given as mean residue molar ellipticity (θ) [deg × cm^2 × dmol^−1].

[3] = tested on: anti-MBP protein IgM antibodies of MS serum; assay: Inhibition (competitive) ELISA, MBP protein coated; type: binding, human; conditions: tested MS serum; peptides 1 and 2 as inhibitors
Source text: (§1) Fifteen Multiple Sclerosis (MS) patients were recruited in the Multiple Sclerosis Clinical Care and Research Centre, Department of Neurosciences, Reproductive Sciences and Odontostomatology, Federico II University (Naples, Italy). The relapsing-remitting MS (RR-MS) patients were previously diagnosed after a lumbar puncture, cerebrospinal fluid analysis, and MRI examination and fulfilled the established international diagnostic criteria ([Polman et al., 2011]; [Thompson et al., 2018]). The present study was conducted in accordance with the Declaration of Helsinki. The performed experimental protocols were approved by the Ethics Committee 2006 (protocol n. 120/06) and 2017 (protocol n. 160/17). […]
(§2) Nunc-Immuno MicroWell 96 well polystyrene ELISA plates (NUNC Maxisorb, product code M9410, Merck, Milan, Italy) were coated with a solution 10 μg/ml of the peptide antigens in pure carbonate buffer 0.05 M (pH 9.6) adding 100 μL/well, and microplates were incubated at 4°C overnight. […] Antibody affinity was measured following the competitive ELISA previously reported ([Real-Fernández et al., 2015]). Semi-saturating sera dilution was previously calculated in preliminary titration curves (absorbance 0.7). […] After approximately 30 min, the reaction was stopped with 1 M NaOH solution (50 μL/well), and the absorbance was read in a multichannel ELISA reader (Tecan Sunrise, Männedorf, Switzerland) at 405 nm. […]

[4] = tested on: IgM antibodies in MS patient sera; assay: Solid-phase ELISA (SP-ELISA), IgM; type: binding, human; conditions: peptide coated 10 μg/ml; for patients in whose serum IgM antibodies were detected: 1 out of 15 patients, sera 1:100; for IgM antibody detection (in words): fifteen MS patient sera 1:100, carbonate buffer pH 9.6, anti-human IgM 1:200, 405 nm
Source text: Fifteen Multiple Sclerosis (MS) patients were recruited in the Multiple Sclerosis Clinical Care and Research Centre, Department of Neurosciences, Reproductive Sciences and Odontostomatology, Federico II University (Naples, Italy). The relapsing-remitting MS (RR-MS) patients were previously diagnosed after a lumbar puncture, cerebrospinal fluid analysis, and MRI examination and fulfilled the established international diagnostic criteria ([Polman et al., 2011]; [Thompson et al., 2018]). The present study was conducted in accordance with the Declaration of Helsinki. The performed experimental protocols were approved by the Ethics Committee 2006 (protocol n. 120/06) and 2017 (protocol n. 160/17). Blood samplings were performed during the routine follow-up of patients, while the healthy control samplings were carried out during routine health checks or blood donations. Sera samples were obtained for diagnostic purposes from patients and healthy controls who had given their informed consent. Blood samples were centrifuged at 4,000 rpm for 10 min and sera supernatant was stored at -20°C until use.
Immunoassays were performed to evaluate IgM or IgG antibodies in sera by SP-ELISA. At this purpose, the synthetic antigens were coated on 96-well plates (NUNC Maxisorb, product code M9410, Merck, Milan, Italy). Coating conditions were set-up independently for each peptide and results are reported in the Supplementary Material. Polystyrene 96-well ELISA plates were coated with 100 μL/well of a 10 μg/ml solution of synthetic peptide antigens 1-6 diluted in pure carbonate buffer 0.05 M (pH 9.6), independently. After overnight incubation at 4°C, plates were washed (3×) using washing buffer. Nonspecific binding sites were blocked with 100 μL/well of fetal bovine serum buffer (10% FBS in washing buffer) at room temperature for 1 h. FBS buffer was removed, and plates were incubated overnight at 4°C with sera (diluted 1:100 in FBS buffer, 100 μL/well). After three washes, plates were treated with 100 μL/well of anti-human IgG or IgM alkaline phosphatase-conjugated specific antibodies diluted in FBS buffer 1:3,000 (IgG) and 1:200 (IgM) for all tested antigens. […] Colorimetric reaction was carried out adding 100 μl of substrate reaction solution (1 mg/ml pNPP, MgCl2 0.01 M in carbonate buffer, pH 9.6) to each well and plates were read at 405 nm using a TECAN plate reader. After 30 min, the reaction was stopped with 1 M NaOH solution (50 μL/well) and the absorbance was read in a multichannel ELISA reader (Tecan Sunrise, Männedorf, Switzerland) at 405 nm. Antibody titer values were calculated as (mean Abs of serum triplicate)—(mean Abs of blank triplicate) representing graphically the calculated mean values. […]

[5] = tested on: IgG antibodies in MS patient sera; assay: Solid-phase ELISA (SP-ELISA), IgG; type: binding; conditions: fifteen MS patient sera 1:100; peptide coated 10 μg/ml, carbonate buffer pH 9.6; anti-human IgG 1:3,000; 405 nm
Source text: as §1
Immunoassays were performed to evaluate IgM or IgG antibodies in sera by SP-ELISA. […] Colorimetric reaction was carried out adding 100 μl of substrate reaction solution (1 mg/ml pNPP, MgCl2 0.01 M in carbonate buffer, pH 9.6) to each well and plates were read at 405 nm using a TECAN plate reader. After 30 min, the reaction was stopped with 1 M NaOH solution (50 μL/well) and the absorbance was read in a multichannel ELISA reader (Tecan Sunrise, Männedorf, Switzerland) at 405 nm. Antibody titer values were calculated as (mean Abs of serum triplicate)—(mean Abs of blank triplicate) representing graphically the calculated mean values. […]

[6] = tested on: anti-MBP (76–116) IgM antibodies of MS serum; assay: Inhibition (competitive) ELISA, MBP (76–116) (2) coated; type: binding, human
Source text: as §1, §2

Sequence	helical structure, residues [1]	% helix ([2]; 25°C) [%]	effect of temperature on secondary structure / self-aggregation (in words) [2]	secondary structure (in words) ([2]; PBS pH 7.4, 25°C)	effect of temperature on secondary structure (in words) [2]	secondary structure (in words) ([2]; water, 25°C)	minimum of CD spectrum attributed to beta structures (aggregation) ([2]; PBS pH 7.4, increasing temperature, temperature-induced self-aggregation)	inhibition of IgM antibody binding to MBP protein (in words) [3]	patients in whose serum IgM antibodies were detected [4] [%]	IgM antibody detection (in words) [4]	IgG antibody reactivity (in words) [5]	affinity of IgMs in competitive ELISA, fold greater than longer analogue MBP (76–116) (2) ([6]; competitive ELISA, MS serum, compared to the longer analogue) [fold]	antibody affinity/recognition in competitive experiment (in words) ([6]; solution conditions of the competitive experiments, peptide 1 vs. peptide 2)
SQHGRTQDENPVVHFFKNIVTPRTPPPSQGKGRGLSLSRFS [MBP (76–116) (2), elongated synthetic peptide, fragment 76–116 of myelin basic protein]	87–96	3	shift of the minimum to lower wavelength and a strong decrease of the signal intensity; also recorded: temperature-induced peptide self-aggregation, likely in beta structures	random coil structures	no spectral differences of secondary peptide structure at various temperatures	randomly structured in water solution	about 205 nm	able to inhibit IgM antibody binding to MBP protein in the tested MS serum with comparable IC50	7	IgM antibodies were detected in one representative patient serum; also recorded: able to detect a high, stable, and reproducible IgM antibody titer	–	–	–
TPPPSQGK [MBP (99–106) (6)]	–	–	–	–	–	–	–	–	–	–	nonspecific IgG antibody reactivity	–	–
TQDENPVVHFFKNIVTPRTPPPSQGK [MBP (81–106) (1), synthetic peptide, fragment 81–106 of myelin basic protein, covering the immunodominant region]	87–96	14	no differences of secondary structure at various temperatures	–	no spectral differences of secondary peptide structure at various temperatures	randomly structured in water solution	–	able to inhibit IgM antibody binding to MBP protein in the tested MS serum with comparable IC50	7	slightly recognized IgGs and IgMs	To a lesser extent, also against peptide MBP (81–106) (1); also recorded: slightly recognized IgGs and IgMs	4	recognized more efficiently by antibodies in the solution conditions of the competitive experiments
